Laboratory results as given in BindingDB's records for doi:10.1021/jm800669s (Abbott Laboratories, 2008).

Molecular target: Bcl-2-like protein 1 (Bcl-XL) (Homo sapiens) (UniProt Q07817)
Test: Displacement of fluorescein labeled BAD peptide from Bcl-XL by fluorescence polarization assay

Chain of Bcl-2-like protein 1 (Bcl-XL) (Homo sapiens) (Q07817 whole entry, looked up): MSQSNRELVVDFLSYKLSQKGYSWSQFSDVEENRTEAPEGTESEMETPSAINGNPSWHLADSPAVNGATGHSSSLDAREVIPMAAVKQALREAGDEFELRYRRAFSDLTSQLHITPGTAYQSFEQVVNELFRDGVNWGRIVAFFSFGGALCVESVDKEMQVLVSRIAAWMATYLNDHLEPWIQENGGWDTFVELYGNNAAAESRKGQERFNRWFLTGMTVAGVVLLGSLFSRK

Row | Ki [nM] | SMILES
1 | 14 | CN(C)CC[C@H](CSc1ccccc1)Nc1ccc(S(=O)(=O)NC(=O)c2ccc(N3CCN(Cc4ccccc4-c4ccc(Cl)cc4)CC3)cc2)cc1 [(R)-4-(4-((4'-Chlorobiphenyl-2-yl)methyl)piperazin-1-yl)-N-(4-(4-(dimethylamino)-1-(phenylthio)butan-2-ylamino)phenylsulfonyl)benzamide]
2 | 1.4 | CN(C)CC[C@H](CSc1ccccc1)Nc1ccc(S(=O)(=O)NC(=O)c2ccc(N3CCN(CC4=C(c5ccc(Cl)cc5)CCC(C)(C)C4)CC3)cc2)cc1[N+](=O)[O-] [(R)-4-(4-((2-(4-Chlorophenyl)-5,5-dimethylcyclohex-1-enyl)methyl)piperazin-1-yl)-N-(4-(4-(dimethylamino)-1-(phenylthio)butan-2-ylamino)-3-nitrophenylsulfonyl)benzamide]
